From PMC9149975, “The diaryl-imidazopyridazine anti-plasmodial compound, MMV652103, exhibits anti-breast cancer activity” (EXCLI Journal, 2022)

How the values were obtained:
[1] = tested on: MCF7 tumors; test: Chick embryo CAM xenograft: tumor weight and metastasis; type: in vivo; settings: 25 μM, every 48 h E10-E16, weighed E18
Experimental: All studies and procedures were conducted with prior approval of the Animal Ethics Committee of the University of Cape Town (FHS AEC REF NO:016/025) in accordance with the South African National Standard (SANS 10386:008) for the Care and Use of Animals for Scientific Purposes (SABS, 2015[71]), and guidelines from the Department of Health (2015[21]). Fertilized White Leghorn eggs were incubated at 37.5 °C with 50 % relative humidity for 9 days. At stage E9, the chorioallantoic membrane (CAM) was dropped by drilling a small hole through the eggshell into the air sac and a 1 cm^2 window was cut in the eggshell above the CAM. Cultured MCF7 cells were detached with trypsin, washed with complete medium and suspended in PBS. An inoculum of MCF7 cells was grafted onto the CAM of each E9 egg (21 eggs were used for each condition) and at E10, tumors were detectable. MCF7 tumors were treated every 48 h (E10, E12, E14, E16) by dropping 100 μl of vehicle (0.25 % DMSO in PBS), a reference compound (Paclitaxel), or MMV652103, onto the tumour. At E18 the upper portion of the CAM was removed, transferred to PBS and the tumors cut away from normal CAM tissue and weighed. A one-way ANOVA analysis with post-tests was done. In parallel, a 1 cm^2 portion of the lower CAM was collected to evaluate the number of metastatic cells. The relative amount of metastasis was calculated as follows: Tumor cells were grafted onto the upper chorioallantoic membrane (CAM) and during metastasis the cells invade the epithelium and basement membrane of the upper CAM and move through connective tissue into the vasculature into the lower CAM. The cells in the lower CAM are then harvested and genomic DNA is extracted and analyzed by qPCR with specific primers for Alu sequences which are only found in higher primates i.e. it allows for the distinction between human tumor cells and the host chick cells. Statistical analysis was directly performed on data from the Bio-Rad CFX Manager 3.1 software.

[2] = tested on: MCF7 cells; test: GSH-Glo Glutathione assay; type: cell-based, human; settings: MCF7, 24 h; MMV652103 ½ IC50 and IC50, doxorubicin IC50 (9.84 nM)
Experimental: The increase in ROS levels results in a decrease in the levels of antioxidants. To confirm the presence of intracellular ROS, the levels of the antioxidant, glutathione (GSH), was measured using the GSH-Glo™ Glutathione assay kit (V6911, Promega, Wisconsin, USA), according to the manufacturer's instructions. Briefly, cells (2500-4500 cells per well) were seeded in opaque 96 well plates. Cells were treated for 24 h with either vehicle or MMV652103. Thereafter, the cell culture medium was removed and 100 μl of 1X GSH-Glo™ Reagent (prepared using Luciferin-NT substrate and Glutathione S-Transferase each diluted 1:100 in GSH-Glo™ Reaction Buffer) was added to each well. The plate was then mixed briefly on a shaker and incubated for 10 min at RT. Thereafter, 100 μl reconstituted Luciferin Detection Reagent was added to each well. The plate was then incubated for 15 min RT in order to stabilize the luminescence signal. The plate was read using the GloMax® Explorer Multimode plate reader (Promega, Wisconsin, USA).

SMILES | tumor weight reduction [1] [%] | levels of GSH [2]
CC(=O)O[C@H]1C(=O)[C@@]2(C)[C@H]([C@H](OC(=O)c3ccccc3)[C@]3(O)C[C@H](OC(=O)[C@H](O)[C@@H](NC(=O)c4ccccc4)c4ccccc4)C(C)=C1C3(C)C)[C@]1(OC(C)=O)CO[C@@H]1C[C@@H]2O [Paclitaxel, reference compound] | 28.22 | –
COc1cccc2c1C(=O)c1c(O)c3c(c(O)c1C2=O)C[C@@](O)(C(=O)CO)C[C@@H]3O[C@H]1C[C@H](N)[C@H](O)[C@H](C)O1 [Doxorubicin, reference compound] | – | significant decrease
